Several values for one entry are separate records, joined by “and”; a condition that tells them apart may be missing. Equal entries are not always repeated. Toxic doses and inconclusive results are not listed. Square brackets hold non-standard residues; d marks the D form. Peptide text beside a SMILES is read from it. ξ: configuration not given here. ξI = CCC(C)C(N)C(=O)O

The results in this text go back to PubChem BioAssay AID330 (DTP/NCI, 2004).

This assay deals with P388 leukemia ip, CD2F1 mice, survival T/C. Description: NCI In Vivo Anticancer Drug Screen. Data for tumor model P388 Leukemia (intraperitoneal) in CD2F1 (CDF1) mice. The following applies: endpoint: median survival time, higher = longer survival. The gist of the method:
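Mice carrying the transplanted tumor received test compound or vehicle. Survival was recorded in each group, and the value is the treated-group measurement divided by that of the vehicle-treated control group.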

The mark [1] stands for this setting: dose: 50.0 mg/kg/injection, schedule: Q01DX005 (ip), vehicle: Klucel (hydroxypropylcellulose) (HPC).
[2] abbreviates: dose: 100.0 mg/kg/injection, schedule: Q01DX005 (ip), vehicle: Klucel (hydroxypropylcellulose) (HPC).
Where [3] appears, read: dose: 100.0 mg/kg/injection, schedule: Q01DX001 (ip), vehicle: saline with Tween-80.
[4] abbreviates: dose: 6.25 mg/kg/injection, schedule: Q01DX009 (ip), vehicle: saline.
[5] abbreviates: dose: 12.5 mg/kg/injection, schedule: Q01DX009 (ip), vehicle: saline.
Setting [6] is: dose: 60.0 mg/kg/injection, schedule: Q01DX005 (ip), vehicle: Klucel (hydroxypropylcellulose) (HPC).
The mark [7] stands for this setting: dose: 120.0 mg/kg/injection, schedule: Q01DX005 (ip), vehicle: Klucel (hydroxypropylcellulose) (HPC).
Setting [8] is: dose: 60.0 mg/kg/injection, schedule: Q01DX005 (ip), vehicle: saline with Tween-80.
[9] abbreviates: dose: 120.0 mg/kg/injection, schedule: Q01DX005 (ip), vehicle: saline with Tween-80.
Setting [10] is: dose: 240.0 mg/kg/injection, schedule: Q01DX005 (ip), vehicle: saline with Tween-80.

Take `O=C1c2ccccc2C(=O)c2c(-c3ccc(Cl)cc3)noc21`: the T/C is, setting by setting: under setting [1], 94 % of control; under setting [2], 93 % of control; (dose: 200.0 mg/kg/injection, schedule: Q01DX005 (ip), vehicle: Klucel (hydroxypropylcellulose) (HPC)) 90 % of control.

Turning to `Clc1cc2[nH]ccc2c(Cl)n1`, the T/C (dose: 50.0 mg/kg/injection, schedule: Q01DX001 (ip), vehicle: saline with Tween-80) is 90 % of control and the T/C under setting [3] was 92 % of control.

Turning to `CCN(CC)CCOC(=O)C(OCC(C)C)(c1ccccc1)c1ccccc1`, the T/C runs as follows: under setting [1], 110 % of control; under setting [2], 108 % of control.

As for `C1CCNCC1.O=C([CH-]C(=O)C(F)(F)F)c1ccc2c(c1)C(=O)c1ccccc1-2.O=C([CH-]C(=O)C(F)(F)F)c1ccc2c(c1)C(=O)c1ccccc1-2.O=C([CH-]C(=O)C(F)(F)F)c1ccc2c(c1)C(=O)c1ccccc1-2.O=C([CH-]C(=O)C(F)(F)F)c1ccc2c(c1)C(=O)c1ccccc1-2.[Eu+3]`, the T/C reads like this: (dose: 12.5 mg/kg/injection, schedule: Q01DX009 (ip), vehicle: Klucel (hydroxypropylcellulose) (HPC)) 112 % of control; (dose: 25.0 mg/kg/injection, schedule: Q01DX009 (ip), vehicle: Klucel (hydroxypropylcellulose) (HPC)) 111 % of control; (dose: 50.0 mg/kg/injection, schedule: Q01DX009 (ip), vehicle: Klucel (hydroxypropylcellulose) (HPC)) 110 % of control.

On to `NC(CO)C(=O)O.[Cl-].[Cl-].[Cl-].[Cl-].[Pt+2]` (stereo not drawn), for which the T/C runs as follows: under setting [4], 114 % of control; under setting [5], 115 % of control; (dose: 50.0 mg/kg/injection, schedule: Q01DX009 (ip), vehicle: saline) 159 % of control.

As to `C(#Cc1c2ccccc2c(C#Cc2ccccc2)c2c1oc1c3ccccc3ccc12)c1ccccc1`, the T/C was 97 % of control (dose: 100.0 mg/kg/injection, schedule: Q04DX003 (ip), vehicle: saline with Tween-80); 97 % of control (dose: 200.0 mg/kg/injection, schedule: Q04DX003 (ip), vehicle: saline with Tween-80); 92 % of control (dose: 400.0 mg/kg/injection, schedule: Q04DX003 (ip), vehicle: saline with Tween-80).

As for `CC1(C)OC(=O)N=C1c1ccc(Cl)cc1`, the T/C under setting [6] was 107 % of control and the T/C under setting [7] was 101 % of control.

With `O=C1Cc2ccccc2C(=O)N1CCN1CCOCC1`, the T/C reads like this: (dose: 100.0 mg/kg/injection, schedule: Q01DX001 (ip), vehicle: saline) 101 % of control; (dose: 200.0 mg/kg/injection, schedule: Q01DX001 (ip), vehicle: saline) 108 % of control.

In the case of `CC(=O)Oc1cc(-c2ccccc2)oc1-c1ccccc1`, the T/C runs as follows: (dose: 100.0 mg/kg/injection, schedule: Q04DX002 (ip), vehicle: saline) 104 % of control; (dose: 200.0 mg/kg/injection, schedule: Q04DX002 (ip), vehicle: saline) 106 % of control; (dose: 400.0 mg/kg/injection, schedule: Q04DX002 (ip), vehicle: saline) 98 % of control.

Turning to `Cc1c(N)nc(C(CC(N)=O)NCC(N)C(N)=O)nc1C(=O)NC(C(=O)NC(C)C(O)C(C)C(=O)NC(C(=O)NCCc1nc(-c2nc(C(=O)NCCCNC(C)c3ccccc3)cs2)cs1)C(C)O)C(OC1OC(CO)C(O)C(O)C1OC1OC(CO)C(O)C(OC(N)=O)C1O)c1cnc[nH]1` (stereo not drawn), the T/C is 104 % of control and 95 % of control (dose: 0.25 mg/kg/injection, schedule: Q01DX009 (ip), vehicle: water); 100 % of control and 111 % of control and 88 % of control (dose: 0.5 mg/kg/injection, schedule: Q01DX009 (ip), vehicle: water); 103 % of control and 104 % of control and 118 % of control (dose: 1.0 mg/kg/injection, schedule: Q01DX009 (ip), vehicle: water); 100 % of control and 113 % of control (dose: 2.0 mg/kg/injection, schedule: Q01DX009 (ip), vehicle: water); 114 % of control and 118 % of control (dose: 4.0 mg/kg/injection, schedule: Q01DX009 (ip), vehicle: water); 100 % of control (dose: 8.0 mg/kg/injection, schedule: Q01DX009 (ip), vehicle: water).

For the compound `CCC(C)C(N)C(=O)NCC(=O)O` (stereo not drawn) (H-[ξI]-Gly-OH), the T/C (dose: 60.0 mg/kg/injection, schedule: Q01DX005 (ip), vehicle: saline) was 96 % of control; the T/C (dose: 120.0 mg/kg/injection, schedule: Q01DX005 (ip), vehicle: saline) was 96 % of control; the T/C (dose: 240.0 mg/kg/injection, schedule: Q01DX005 (ip), vehicle: saline) is 96 % of control.

Regarding `COc1ccc(C2Cc3cc(OC)c(OC)cc3C(c3ccccc3)N2)cc1OC` (stereo not drawn), the T/C reads like this: under setting [8], 86 % of control; under setting [9], 88 % of control; under setting [10], 89 % of control.

For the compound `COCCOCCOCCOCCOC(=O)CCn1cc(F)c(=O)[nH]c1=O`, the T/C is, setting by setting: (dose: 45.0 mg/kg/injection, schedule: Q04DX002 (ip), vehicle: saline) 99 % of control; (dose: 90.0 mg/kg/injection, schedule: Q04DX002 (ip), vehicle: saline) 106 % of control; (dose: 180.0 mg/kg/injection, schedule: Q04DX002 (ip), vehicle: saline) 101 % of control; (dose: 360.0 mg/kg/injection, schedule: Q04DX002 (ip), vehicle: saline) 108 % of control.

On to `c1ccc([P+](NCCN[P+](c2ccccc2)(c2ccccc2)c2ccccc2)(c2ccccc2)c2ccccc2)cc1`, for which the T/C is 97 % of control under setting [4] and 100 % of control under setting [5].

Turning to `CCN(CC)CCS(=O)Cc1ccccc1` (stereo not drawn), the T/C reads like this: under setting [8], 100 % of control; under setting [9], 93 % of control; under setting [10], 102 % of control.

For the compound `N#CC1(c2ccccc2)CCN(c2c3ccccc3nc3ccccc23)CC1`, the T/C (dose: 100.0 mg/kg/injection, schedule: Q04DX003 (ip), vehicle: Klucel (hydroxypropylcellulose) (HPC)) was 103 % of control and 110 % of control; the T/C (dose: 200.0 mg/kg/injection, schedule: Q04DX003 (ip), vehicle: Klucel (hydroxypropylcellulose) (HPC)) is 109 % of control and 112 % of control; the T/C (dose: 400.0 mg/kg/injection, schedule: Q04DX003 (ip), vehicle: Klucel (hydroxypropylcellulose) (HPC)) is 117 % of control and 123 % of control.

With `Cc1ccccc1C1OC(N)=C(O)C1=O` (stereo not drawn), the T/C by setting is: under setting [6], 93 % of control; under setting [7], 93 % of control; (dose: 240.0 mg/kg/injection, schedule: Q01DX005 (ip), vehicle: Klucel (hydroxypropylcellulose) (HPC)) 90 % of control.

Turning to `Cc1cc2c(-c3ccccc3)c3cc(C)c(N)cc3nc2cc1N`, the T/C was 101 % of control (dose: 6.25 mg/kg/injection, schedule: Q01DX005 (ip), vehicle: Klucel (hydroxypropylcellulose) (HPC)); 100 % of control (dose: 12.5 mg/kg/injection, schedule: Q01DX005 (ip), vehicle: Klucel (hydroxypropylcellulose) (HPC)); 99 % of control (dose: 25.0 mg/kg/injection, schedule: Q01DX005 (ip), vehicle: Klucel (hydroxypropylcellulose) (HPC)).

On to `O=C(C=C(C(F)(F)F)C(F)(F)F)c1ccc(F)cc1`, for which the T/C was 109 % of control (dose: 6.25 mg/kg/injection, schedule: Q04DX003 (ip), vehicle: other); 104 % of control (dose: 12.5 mg/kg/injection, schedule: Q04DX003 (ip), vehicle: other); 110 % of control (dose: 16.5 mg/kg/injection, schedule: Q01DX009 (ip), vehicle: saline + alcohol); 106 % of control (dose: 25.0 mg/kg/injection, schedule: Q01DX009 (ip), vehicle: saline + alcohol); 118 % of control (dose: 25.0 mg/kg/injection, schedule: Q04DX003 (ip), vehicle: other); 109 % of control (dose: 37.5 mg/kg/injection, schedule: Q01DX009 (ip), vehicle: saline + alcohol).

Take `CCCCCCCCCCCCCCCc1c(NC(C)(CC)[P+](=O)O)c(=O)n(C)n1C` (stereo not drawn): the T/C reads like this: under setting [4], 112 % of control; under setting [5], 100 % of control; (dose: 100.0 mg/kg/injection, schedule: Q01DX009 (ip), vehicle: saline) 101 % of control.

As for `Cc1cc2c(C(C)C)c(O)c(O)c(C=NCCO)c2c(O)c1-c1c(C)cc2c(C(C)C)c(O)c(O)c(C=NCCO)c2c1O`, the T/C reads like this: (dose: 50.0 mg/kg/injection, schedule: Q01DX005 (ip), vehicle: saline with Tween-80) 113 % of control; (dose: 75.0 mg/kg/injection, schedule: Q01DX005 (ip), vehicle: saline with Tween-80) 120 % of control; (dose: 100.0 mg/kg/injection, schedule: Q01DX005 (ip), vehicle: saline with Tween-80) 120 % of control.

For the compound `COc1ccc2c3c1OC1C(OC)(OC)C=C[C@@]4(Br)[C@@H](C2)N(C)CC[C@]314` (stereo partly drawn), the T/C by setting is: under setting [3], 109 % of control; (dose: 200.0 mg/kg/injection, schedule: Q01DX001 (ip), vehicle: saline with Tween-80) 106 % of control; (dose: 400.0 mg/kg/injection, schedule: Q01DX001 (ip), vehicle: saline with Tween-80) 123 % of control.
